# Experiments:
# [1] = test system: HeLa cells; assay: Resazurin metabolic cell viability assay, HeLa cells; format: cell-based; details: Human HeLa live cells, 24h, 1×10^-5 mol.L^-1
# Source text: (§1) The following figures provide preferred embodiments for the present disclosure and should not be seen as limiting the scope of the disclosure. • Figure 1: Scheme of the fluorophore precursors synthesis. • Figure 2: Synthesis of the fluorophores. • Figure 3: Absorption and emission spectra of some of the fluorophores in a dichloromethane (DCM) solution wherein black squares represent the absorption of (1E,4E)-1,5-bis[4-(dimethylamino)phenyl]penta-1,4-dien-3-one; black circles represent the absorption of (2E,6E)-2,6-bis[4-(dimethylamino)benzylidene]cyclohexanone; black diamonds represent the absorption of 2,6-bis[3-bromo-4-(dimethylamino)benzylidene]cyclohexanone; black triangles pointing up represent the absorption of (1E,4E)-1,5-bis[3-bromo-4-(dimethylamino)phenyl]penta-1,4-dien-3-one; black triangles pointing down represent the absorption of (1E,4E)-1,5-bis[3-chloro-4-(dimethylamino)phenyl]penta-1,4-dien-3-one; black stars represent the absorption of 2,6-bis[3-chloro-4-(dimethylamino)benzylidene]cyclohexanone; open squares represent the emission of (1E,4E)-1,5-bis[4-(dimethylamino)phenyl]penta-1,4-dien-3-one; open circles represent the emission of (2E,6E)-2,6-bis[4-(dimethylamino)benzylidene]cyclohexanone; open diamonds represent the emission of 2,6-bis[3-bromo-4-(dimethylamino)benzylidene]cyclohexanone; open triangles pointing up represent the absorption of (1E,4E)-1,5-bis[3-bromo-4-(dimethylamino)phenyl]penta-1,4-dien-3-one; open triangles pointing down represent the absorption of (1E,4E)-1,5-bis[3-chloro-4-(dimethylamino)phenyl]penta-1,4-dien-3-one; open stars represent the absorption of 2,6-bis[3-chloro-4-(dimethylamino)benzylidene]cyclohexanone. • Figure 4: Sample distributions of two cyclic fluorophores: (2E,6E)-2,6-bis[3-bromo-4-(dimethylamino)benzylidene]cyclohexanone labelled as cyclic-Br and (2E,6E)-2,6-bis[3-chloro-4-(dimethylamino)benzylidene]cyclohexanone labelled as cyclic-Cl (orange pseudocolour) in HeLa cells cultured on coverslips and incubated alive and for 1h with 10^-5 mol.L^-1 of the compounds. The laser line 458 nm was used to excite and the confocal Zeiss LSM-510 META 415 to 750 nm detector used to detect the fluorophores. The nuclear DAPI is used as a counterstaining dye. • Figure 5: Co-localization of the compounds (1E,4E)-1,5-bis[4-(dimethylamino)phenyl]penta-1,4-dien-3-one, labelled as linear-H and (2E,6E)-2,6-bis[3-chloro-4-(dimethylamino)benzylidene]cyclohexanone, labelled as cyclic-Cl with the Trans-Golgi Network (TGN) marker Syntaxin-6, which was Texas Red (red colour) and Alexa-405 (cyan pseudocolour) labelled by using secondary antibodies. DAPI (blue colour) was used as nuclear marker. HeLa cells were incubated in particular for 1h with 1-2×10^-5 mol.L^-1 of the fluorophores, before being fixed. The laser line 405 nm, in particular at 10-20% of its power was used to excite the fluorophores. […] A. Cell viability was determined using the metabolic Resazurin assay, and data (resazurin final O.D.±SD of four independent experiments) presented graphically as percentages of control cells (not incubated with the compounds), wherein the control is labelled as Ctrl; (1E,4E)-1,5-bis[4-(dimethylamino)phenyl]penta-1,4-dien-3-one is labelled as L-H; (1E,4E)-1,5-bis[3-chloro-4-(dimethylamino)phenyl]penta-1,4-dien-3-one is labelled as L-Cl; (1E,4E)-1,5-bis[3-bromo-4-(dimethylamino)phenyl]penta-1,4-dien-3-one is labelled as L-Br; (2E,6E)-2,6-bis[4-(dimethylamino)benzylidene]cyclohexanone labelled is labelled as C-H; 2,6-bis[3-chloro-4-(dimethylamino)benzylidene]cyclohexanone is labelled as C-Cl; 2,6-bis[3-bromo-4-(dimethylamino)benzylidene]cyclohexanone is labelled as C-Br. Statistical significance using the student-t test: *p<0.05; **p<0.01. B. Microphotograph of Cyclic-Cl distribution in HeLa and MC3T3 cells upon 24h of exposure to the compounds. Microscope settings used: a 40×/1.3 oil objective; HFT 405/488/633; in particular a 405 nm laser line at 40% of its power. […]
# [2] = test system: MC3T3 live cells; assay: Resazurin metabolic cell viability assay, MC3T3 cells; format: cell-based, rat; details: 24h, 1×10^-5 mol.L^-1
# Source text: as §1
# [3] = comparison compound; cited from earlier work
Compound,"cytotoxicity (cell viability, resazurin reduction) [1]","cytotoxicity (cell viability, resazurin reduction) [2]",storage stability [3]
"CN(C)c1ccc(/C=C2\CCC/C(=C\c3ccc(N(C)C)c(Cl)c3)C2=O)cc1Cl [cyclic-Cl, (2E,6E)-2,6-bis[3-chloro-4-(dimethylamino)benzylidene]cyclohexanone]",not cytotoxic,not cytotoxic,
"CN(C)c1ccc(/C=C/C(=O)/C=C/c2ccc(N(C)C)cc2)cc1 [linear-H, (1E,4E)-1,5-bis[4-(dimethylamino)phenyl]penta-1,4-dien-3-one]",not cytotoxic,not cytotoxic,
"CN(C)c1ccc(/C=C2\CCC/C(=C\c3ccc(N(C)C)c(Br)c3)C2=O)cc1Br [cyclic-Br, (2E,6E)-2,6-bis[3-bromo-4-(dimethylamino)benzylidene]cyclohexanone]",not cytotoxic,not cytotoxic,
"CN(C)c1ccc(/C=C/C(=O)/C=C/c2ccc(N(C)C)c(Br)c2)cc1Br [linear-Br, (1E,4E)-1,5-bis[3-bromo-4-(dimethylamino)phenyl]penta-1,4-dien-3-one]",not cytotoxic,not cytotoxic,
"CCN(CC)c1ccc2nc3c4ccccc4c(=O)cc-3oc2c1 [Nile Red, 9-diethylamino-5H-benzo[a]phenoxazine-5-one]",,,stable if kept at -20 °C
"CN(C)c1ccc(/C=C/C(=O)/C=C/c2ccc(N(C)C)c(Cl)c2)cc1Cl [linear-Cl, (1E,4E)-1,5-bis[3-chloro-4-(dimethylamino)phenyl]penta-1,4-dien-3-one]",not cytotoxic,not cytotoxic,
"CN(C)c1ccc(/C=C2\CCC/C(=C\c3ccc(N(C)C)cc3)C2=O)cc1 [cyclic-H, (2E,6E)-2,6-bis[4-(dimethylamino)benzylidene]cyclohexanone]",not cytotoxic,not cytotoxic,

# From patent EP3445348B1, “FLUORESCENT COMPOUNDS, PRODUCTION METHODS AND USES THEREOF” (Universidade de Aveiro, priority 2016, dated 2017)
